Columns and labels:
Format in all cases: functional
[1] = system: LNCaP; test: Induction of cell cycle arrest in human LNCaP cells assessed as accumulation at G2 phase at 2 micromol/L after 24 hrs by RNase A/PI-staining based flow cytometric analysis (reference value: 20.87%); details: dose 2 µmol/L, at 2 µM
[2] = system: LNCaP; test: Induction of apoptosis in human LNCaP cells assessed as necrotic cells level at 1 micromol/L incubated for 24 hrs by Annexin V/PI staining staining based flow cytometry (reference value: 0.694%); details: dose 1 µmol/L, at 1 µM
[3] = system: LNCaP; test: Induction of apoptosis in human LNCaP cells assessed as necrotic cells level at 2 micromol/L incubated for 24 hrs by Annexin V/PI staining staining based flow cytometry (reference value: 0.694%); details: dose 2 µmol/L, at 2 µM
[4] = system: LNCaP; test: Induction of apoptosis in human LNCaP cells assessed as viable cells level at 2 micromol/L incubated for 24 hrs by Annexin V/PI staining staining based flow cytometry (reference value: 96.3%); details: dose 2 µmol/L, at 2 µM
[5] = system: LNCaP; test: Induction of apoptosis in human LNCaP cells assessed as early apoptotic cells level at 2 micromol/L incubated for 24 hrs by Annexin V/PI staining staining based flow cytometry (reference value: 2.09%); details: dose 2 µmol/L, at 2 µM

CC1(C)C(=O)N(c2ccc(C#N)c(C(F)(F)F)c2)C(=S)N1CCCCCn1cc(COCCOCCOC(=O)CC23CC4CC(CC(C4)C2)C3)nn1
Activity [1]: 8.9% | Activity [2]: 0.774% | Activity [3]: 0.774% | Activity [4]: 96.1% | Activity [5]: 1.56%

— ChEMBL document CHEMBL4706528, “The design, synthesis and anti-tumor mechanism study of new androgen receptor degrader” (Eur J Med Chem, 2020)
